Reference: US20210253511A1, “COMPOUNDS AND USES FOR THE TREATMENT AND PREVENTION OF DISEASES AND CONDITIONS ASSOCIATE WITH OR AGGREVATED BY IMPARED MITOPHAGY” (Yissum Research Development Company of The Hebrew …, priority 2018, published 2021)

System: C. elegans worms in 200 mM paraquat (PQ)
Experiment: Paraquat survival assay
Assay type: in vivo
Conditions: 200 mM PQ; for protective effect on worms' survival in PQ (figure legend): concentration not given, log-rank test
Method: C. elegans strains were grown at 21° C. on nematode growth media (NGM) agar plates containing diamines or vehicle as a control. The NGM agar plates were prepared as described in L. Livshits, E. Gross, A method for measuring sulfide toxicity in the nematode Caenorhabditis elegans, MethodsX 4 (2017) 250-255. A suspension of 3 g sodium chloride (NaCl), 20 g Bacto agar, and 2.5 g of Bacto peptone in 1 L of double distilled water (DDW) was mixed and autoclaved. Then, the medium was cooled to 55° C. and supplemented with 1 ml of 100 mM CaCl2), 1 ml of 100 mM MgSO4, 25 ml of 1 M potassium phosphate buffer pH 6, and 1 ml of 5 mg/ml cholesterol (the cholesterol was dissolved in ethanol). Diamines or DDW (vehicle) were added to the NGM-agar solution. For RNAi NGM-agar plates, Isopropyl β-D-1-thiogalactopyranoside (IPTG) and ampicillin were added to a final concentration of 1 mM and 100 μg/ml, respectively. The NGM-agar solution was thoroughly vortex mixed and immediately poured into 35 mm petri dish (4 ml per plate). NGM-plates were covered with aluminum foil and dried for 24 h at room temperature (RT). 24 h before the experiment, plates were seeded with 100 μl bacteria (OD600=0.6, OP50 or HT115(DE3)). The seeded plates were covered with aluminum foil and dried for 24 h at RT.
To get synchronized C. elegans larvae, the method described in W. B. Wood, The Nematode Caenorhabditis Elegans, Cold Spring Harbor Laboratory 1988, was performed. In brief, hypochlorite/NaOH solution was made by mixing 1 ml of 5% solution of sodium hypochlorite, 800 μl of 2.5 N NaOH and 2.2 ml DDW to final concentrations of 0.5 N NaOH and 1.25% sodium hypochlorite. M9 buffer was made by dissolving 3 g KH2PO4, 6 g Na2HPO4, 5 g NaCl and 1 ml of MgSO4 from 1M stock in 1 litter of DDW. The solution pH was adjusted to 7 and sterilizes by filtration (with a 0.2 µm filter bottle). Gravid hermaphrodites was washed from the NGM plates into a 15 ml tube with M9 buffer and centrifuged for 2 min at 900×g, RT. Liquid was removed until 2 ml worms' suspension was left and added 2 ml of hypochlorite/NaOH solution. A 5 ml syringe with a 21-gauge needle was used to aspirate the worm suspension back and forth several times. After 3 min it was observed the state of the worms using a dissecting stereoscope. At this stage, approximately 50% of worms should appear broken and many of the embryos should float in the solution. The embryos were immediately sedimented using centrifugation (1690×g for 2 min) and carefully removed the supernatant and add 10 ml of M9 buffer. This washing step was repeated three additional times. The supernatant was removed until 2 ml remains and rotated the tube for 16 h at RT. The hatched L larvae were collected by centrifugation (1690×g for 3 min) and put ˜80 L in each seeded NGM assay plate. Grow the L1 (Day 1) for 3 days until they become young adults (Day 3).

[1] = compound at 0.25 mM, vs control worms
[2] = compound at 4 mM, vs control worms
[3] = tested at 0.0625 mM and 0.25 mM, not split

Row | Structure (SMILES) | survival of worms in paraquat [1] | survival of worms in paraquat [2] | protective effect on worms' survival in PQ (figure legend) | survival of worms in paraquat (compound at 0.0625 mM, vs control worms) | survival of worms in paraquat [3]
1 | NCCCCCCN [1,6-Diaminohexane] | did not have any effect | did not have any effect |  |  | 
2 | N=C(N)NCCCCCCNC(=N)N [1,6-Diguanidinohexane] | significantly improve the survival of worms |  | significant protective effect | significantly improve the survival of worms | 
3 | NOCCCCCCCCON [1,8-diaminooxy-octane] |  |  | significant protective effect |  | significantly improved the survival of worms in PQ
4 | N=C(N)NCCCCCCCCNC(=N)N [1,8-diguanidinooctane] |  |  | significant protective effect |  | significantly improved the survival of worms in PQ
5 | NOCCCCCCCCCON [1,9-diaminooxy-nonane] |  |  | significant protective effect |  | significantly improved the survival of worms in PQ
6 | NCCCCCCCCCCN [1,10-Diaminodecane] | significantly improved worms' survival | significantly decreased worms' survival |  |  | 
7 | NCCCCCCCCCCCCN [1,12-Diaminododecane] | did not | significantly improved their survival |  |  | 
